# Assay results published in paper PMC12374861, “Synthetic Peptides Suppress Nervous Necrosis Virus Absorption and Improve Survival Rates in European Sea Bass” (Marine Biotechnology (New York, N.y.), 2025).
# Ends that are not written are not given here.
# Assays:
# RGNNV [1] = test: RGNNV in vivo bath challenge of European sea bass with peptide injection after infection; design: species or system European sea bass (Dicentrarchus labrax); settings: for Relative percent survival (RPS): juvenile sea bass, bath infection 3.16 × 10^4 TCID₅₀ RGNNV/mL for 2 h, then intramuscular injection 1 µg peptide/g, 23 dpi, infected PBS group 63.6% survival; for RGNNV cp gene expression in the brain / RGNNV rdrp gene expression in the brain: qPCR relative to ef1a, 2 dpi, n = 6, 1 µg peptide/g i.m. after RGNNV bath challenge; for RGNNV cp gene expression in the brain: Fig. 5A; for RGNNV rdrp gene expression in the brain: Fig. 5B; for Clinical signs of VER disease, severity score: four-rank scale 1-4, sea bass, RGNNV bath challenge, 1 µg peptide/g i.m., Fig. 4B
# Procedure: RGNNV In vivo Challenge of European Sea Bass
# A total of 375 sea bass were randomly assigned to eight experimental groups (in duplicate) and acclimated for 15 days. Seven groups were infected by immersion (10 L; 3.16 × 10^4 TCID₅₀ RGNNV/mL; 2 h), while a mock-infected control received conditioned medium. […] Combinations were selected according to the results obtained in the competitive in vitro assay against RGNNV (see below). Disease signs and mortalities were monitored daily for 23 days post-infection (dpi) using a four-rank scale (Valero et al. [2021a]). Fish (n = 6/group/time-point) were sampled at 2 and 23 dpi, euthanized with clove oil, bled, and weighed. Brain, NNV target tissue, and head-kidney, major hematopoietic tissue in fish, were dissected, frozen in TRIzol (Life Technologies), and stored at − 80 °C.
# For viral load analysis, total RNA was extracted from sea bass brain and head-kidney using TRIzol (Life Technologies) and from E − 11 cells using the GenJET RNA Purification Kit (Thermo Fisher Scientific), following manufacturer protocols. One microgram of RNA was DNAse I-treated (1 U/µL; Thermo Scientific), and cDNA was synthesized using Superscript IV Reverse Transcriptase (Invitrogen). qPCR was performed on a QuantStudio 5 Flex (Applied Biosystems) to quantify cp, rdrp and mx genes using PowerUp SYBR Green reagents (Applied Biosystems). The protocol included a 95 °C hold, then 40 cycles (95 °C; 15 s) and 60 °C for 1 min. Relative expression was calculated using the 2^⁻ΔCt method (Livak and Schmittgen [2001]), with ef1a as the endogenous control. Primers (Supplementary Data S2) were validated by melting curve analysis and negative controls.
# Fish mortality was analysed using Kaplan–Meier survival curves with log-rank (Mantel–Cox) tests for significance. Relative gene expression was evaluated by one-way ANOVA (p ≤ 0.05) followed by Tukey’s test. Viral kinetics were compared between P4-treated and untreated groups using Student’s t-test (p ≤ 0.05) at specific time points. All analyses were performed with IBM SPSS Statistics 20.
# Fig. 4 Therapeutic administration of synthetic peptides improves survival and symptomatology in […] (RGNNV)-infected European sea bass juveniles. […] A mock-infected group was treated twice with only PBS. (A) Kaplan–Meier survival curves; (B) Heat-map representing the cumulated number of fish showing clinical signs of VER disease attending to their severity: (1) changes of the color of the skin, slower rhythm of swimming and/or slower reaction to external stimuli as feeding; (2) alterations in the swimming balance and/or erratic swimming spasms; (3) continuous erratic swimming; and (4) complete incapacity to keep balance, swim and/or move without external stimuli. VER, viral encephalopathy and retinopathy
# Fig. 5 Therapeutic administration of synthetic peptides decreased viral loads in the brain without additional mx gene regulation in the sea bass juveniles head-kidney infected with red-spotted grouper nervous necrosis virus (RGNNV). […] A mock-infected group was treated twice with only PBS. (A–C) Transcription levels of RGNNV cp (A) and rdrp (B) genes in the brain and (C) mx gene in the head-kidney. Data represent the relative gene expression mean ± SEM (n = 6). Different letters indicate significant differences among groups according to the ANOVA (p < 0.05)
# SJNNV = format: cell-based, striped jack nervous necrosis virus (strain SJNag97); settings: virus (MOI 0.01) incubated with 500 μg/mL peptide for 15 min at 25 °C, titrated in E-11 cells; control virus + PBS; representative of two independent assays; Fig. 2B
# Procedure: (§1) Parental RGNNV (strain It/411/96), SJNNV (strain SJNag97), and reassortant isolates (RGNNV/SJNNV, 367.2.2005; SJNNV/RGNNV, 389/I96) were used. Viruses were propagated in E − 11 cells cultured in L-15 Leibovitz medium (BioWest) supplemented with 5% FBS, 2 mM L-glutamine, and 100 IU/mL penicillin/streptomycin (Thermo Fisher Scientific) at 25 °C. Infected monolayers were incubated at 25 °C until extensive cytopathic effect (CPE) developed. Supernatants were then harvested, centrifuged, and titrated in triplicate using the end-point dilution method, expressed as TCID₅₀/mL (Reed and Müench [1938]).
# (§2) For in vitro antiviral assays, viral cultures (MOI 0.01) from parental and reassortant strains were incubated with peptides (single or combined) using a non-lethal concentration previously tested (500 μg/mL; León et al. [2020]), for 15 min at 25 °C with gentle agitation. Controls were virus samples incubated with PBS (100% viral activity). Treated samples were titrated as previously. After medium removal, cells were exposed to ten-fold viral dilutions in 2% FBS. CPE was monitored daily for 10 days, and viral titres were calculated as TCID₅₀/mL (Reed and Müench [1938]) and expressed as viral titre or percent inhibition relative to controls.
# Fig. 2 Designed peptides, single or combined, reduce the NNV absorption in vitro. NNV parental or reassortant genotypes were incubated with 500 μg/mL of the synthetic peptides for 15 min. Then, the viruses were titrated in the E − 11 cell line. Control samples consisted on virus incubated with the same amount of phosphate buffer saline. (A) Viral titer (TCID50/mL) and (B) % of virus inhibition with respect to the controls are represented. Data are representative of two independent assays. […] Each bar was matched to a substance by its colour and by the order of the legend.
# E-11 cells = test: MTT cytotoxicity test on E-11 cells; format: cell-based; settings: 24 h at 25 °C, mean of n = 3, control = 100.0
# Procedure: Synthetic peptides cytotoxicity on E − 11 cells was assessed using the MTT (Sigma) test with serial peptide dilutions (1000–4 µg/mL in L − 15 medium; n = 3; 24 h at 25 °C) as elsewhere (Cervera et al. [2024c]). Absorbance was measured at 570 nm (BMG Labtech); blanks lacked cells. Cell viability was calculated as the OD ratio of treated to untreated cells × 100, normalized at 690 nm.
# Supplementary data S4: Cell viability (%) of E-11 cells after incubation with the synthetic peptides for 24 h. Data represent the mean ± SEM (n=3).
# RGNNV/SJNNV reassortant = test: In vitro antiviral (competition) assay: virus incubated with peptide, then titrated in E-11 cells; format: cell-based, RGNNV/SJNNV reassortant (367.2.2005); settings: virus (MOI 0.01) incubated with 500 μg/mL peptide for 15 min at 25 °C, control virus + PBS, representative of two independent assays, Fig. 2B
# Procedure: as §1, §2
# Fig. 2 Designed peptides, single or combined, reduce the NNV absorption in vitro. […]
# RGNNV [2] = test: RGNNV adsorption efficiency, progeny production and replication kinetics in P4 pre-treated E-11 cells; format: cell-based, red-spotted grouper nervous necrosis virus
# Procedure: Based on in vivo results (see below), the P4 effect on RGNNV replication was further assessed by analysing viral adsorption efficiency and progeny production, as previously (Valero et al. [2021b]) with slight modifications. Intracellular and extracellular viral kinetics were examined using semi-confluent E − 11 monolayers in 12-well plates (Sarstedt) treated with P4 (500 µg/mL) for 24 h; untreated cells served as controls. After treatment, supernatants were removed, cells washed thrice, and infected with RGNNV (MOI 0.01) for 45 min. Residual inoculum was collected, and monolayers washed and overlaid with L-15 for incubation at 25 °C with daily CPE monitoring. Supernatants were collected at 8, 12, 24, and 48 h post-infection (hpi); cells were washed, scraped and stored. For extracellular kinetics, supernatants were collected until 168 hpi. All samples were clarified by centrifugation (2000 × g, 10 min). Titrations were performed for: (i) total inoculated virus (TIV), (ii) non-attached virus (NAV), and (iii) viral progeny (VP). Assays were conducted in triplicate.
# Formulas used for impact of synthetic peptides on RGNNV replication in vitro assay are the following: • AbsorbedvirusAV=TIV-NAV • AdsorptionefficacyAE=AV/TIV×100 • Productionrate(PR)=VP/AV • Relativeratioofproduction(RRP)=PRP4+RGNNV/PRRGNNV
# Fig. 3 The pre-treatment with P4 synthetic peptide partially disrupts the replication of RGNNV in vitro. (A) Intracellular replication kinetics; (B) Viral production in cell supernatants; and (C, D) Genome synthesis in cell lysates by means of transcriptional levels of rdrp (C) and cp (D) genes. Monolayers of E-11 were incubated with 500 µg/mL of P4 or untreated for 24 h and then infected with […] nervous necrosis virus (RGNNV) (n = 3). Supernatants and cell lysates were collected at 8, 12, 24, 48 h post-infection (hpi). Additionally, supernatants were sampled at 168 hpi for extracellular replication kinetic analysis. Infectious titers were determined by the end-point titration method (Reed and Müench [1938]) and expressed as mean Log10 TCID50/mL ± standard error of the mean (SEM). Relative expression was presented as the mean ± SEM (n = 3). Asterisks indicate significant differences among groups according to the Student-t test (p < 0.05)
Substance,Relative percent survival (RPS) (RGNNV [1]) [%],RGNNV cp gene expression in the brain (RGNNV [1]),RGNNV rdrp gene expression in the brain (RGNNV [1]),"% of virus inhibition with respect to the controls, SJNNV (SJNNV) [%]","Viability (%) of E-11 cells, mean (E-11 cells; peptide 0.00411 mg/mL) [%]","Viability (%) of E-11 cells, mean (E-11 cells; peptide 0.01234 mg/mL) [%]","Viability (%) of E-11 cells, mean (E-11 cells; peptide 0.03704 mg/mL) [%]","Viability (%) of E-11 cells, mean (E-11 cells; peptide 0.11111 mg/mL) [%]","Viability (%) of E-11 cells, mean (E-11 cells; peptide 0.33333 mg/mL) [%]","Viability (%) of E-11 cells, mean (E-11 cells; peptide 1.00000 mg/mL) [%]","% of virus inhibition with respect to the controls, RGNNV/SJNNV (RGNNV/SJNNV reassortant) [%]","Clinical signs of VER disease, severity score (RGNNV [1])","AE, adsorption efficiency (RGNNV [2]; AE = AV/TIV × 100, E-11 cells pre-treated with P4 500 µg/mL 24 h, untreated cells 99.05%) [%]","Intracellular viral replication titre at 48 h post-infection (RGNNV [2]; E-11 cells pre-treated with P4 500 µg/mL 24 h, RGNNV, cell lysates, 48 hpi, untreated cells 2.40 × 10⁶, n = 3, Fig. 3A)","Viral release in cell supernatants at 48 h post-infection (RGNNV [2]; E-11 cells pre-treated with P4 500 µg/mL 24 h, RGNNV, supernatants, 48 hpi, untreated cells 6.77 × 10^4, n = 3, Fig. 3B)","Viral progeny (VP) (RGNNV [2]; E-11 cells pre-treated with P4 500 µg/mL 24 h, then RGNNV MOI 0.01, untreated cells 1.40 × 10^8)","Attached virus (AV), Log ± SEM (RGNNV [2]; E-11 cells pre-treated with P4 500 µg/mL for 24 h, then RGNNV MOI 0.01 for 45 min, triplicate)","Attached virus (AV) (RGNNV [2]; E-11 cells pre-treated with P4 500 µg/mL for 24 h, washed, infected with RGNNV MOI 0.01 for 45 min, AV = TIV − NAV, triplicate, untreated cells 9.20 × 10^5 in Table 2)","PR, production rate (RGNNV [2]; PR = VP/AV, P4 pre-treated E-11 cells, untreated cells 151.57)","RRP, relative ratio of production (RGNNV [2]; RRP = PR(P4+RGNNV)/PR(RGNNV))"
VSKASTVTGFGR-NH2 [Peptide P2],43.8,no transcriptional effect,no transcriptional effect,90,103.1,121.8,111.5,106.2,126.9,117.2,96.84,,,,,,,,,
ALQATRGAVVAKWW-NH2 [Peptide P5],,,,,126.6,116.7,116.4,122.7,104.3,115.8,,,,,,,,,,
PDPTDNDHTFD-NH2 [Peptide P4],81.3,lowered,lowered,,87.4,102.6,92.4,110.6,100.5,106.4,,1,98.99,1.64 × 10^4 TCID₅₀/mL,3.36 × 10^3 TCID₅₀/mL,2.46 × 10^7 TCID50/mL,5.96 ± 0.005,9.21 × 10^5 TCID50/mL,26.76,0.18
SVRLSVPSLETPEETTA-NH2 [Peptide P7],68.8,,effectively blocked,90,149.6,125.7,138.9,116.6,119.8,131.6,,≤ 4,,,,,,,,
LLWTSSGKEQR-NH2 [Peptide P6],,,,90,157.5,139.2,138.9,152.9,146.5,128.1,,,,,,,,,,
TTKAANPQPRRRANNRRRS-NH2 [Peptide P1],,,,90,123.5,129.9,100.1,96.6,109.3,91.5,,,,,,,,,,
